Assay results taken from ChEMBL document CHEMBL1136917, “Isoxazole moiety in the linker region of HDAC inhibitors adjacent to the Zn-chelating group: effects on HDAC biology and antiproliferative activity” (Bioorg Med Chem Lett, 2009).

Biological target: Histone deacetylase 3 (Homo sapiens, UniProt O15379)
Details: not given

Sequence of Histone deacetylase 3 (O15379 whole entry): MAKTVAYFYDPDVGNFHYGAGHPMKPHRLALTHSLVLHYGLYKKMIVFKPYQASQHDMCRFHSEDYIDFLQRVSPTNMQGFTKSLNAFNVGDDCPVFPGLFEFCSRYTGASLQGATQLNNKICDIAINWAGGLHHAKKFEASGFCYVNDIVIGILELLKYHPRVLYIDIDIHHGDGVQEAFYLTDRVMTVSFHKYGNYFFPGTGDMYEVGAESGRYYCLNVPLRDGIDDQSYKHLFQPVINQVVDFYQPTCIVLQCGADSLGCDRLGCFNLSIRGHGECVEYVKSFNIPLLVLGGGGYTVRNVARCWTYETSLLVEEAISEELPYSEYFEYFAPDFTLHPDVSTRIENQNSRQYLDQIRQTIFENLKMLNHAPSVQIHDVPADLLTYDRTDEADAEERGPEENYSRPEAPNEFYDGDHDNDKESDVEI

IC50 [µM]	Compound
> 30	O=C(CCCCc1cc(CO)no1)Nc1nc(-c2ccccc2)cs1
10.6	O=C(CCCCc1cc(C(=O)O)no1)Nc1nc(-c2ccccc2)cs1
> 30	NC(=O)c1cc(CCCCC(=O)Nc2nc(-c3ccccc3)cs2)on1
1.92	CC(C)(C)OC(=O)Nc1ccc(-c2cc(C(=O)NCC(=O)Nc3ccc(-c4cc(C(=O)NO)no4)cc3)no2)cc1
7.41	O=C(CCCCc1cc(C(=O)NO)no1)Nc1ccc(-c2ccccc2)cc1
0.03	O=C(CCCCc1cc(C(=O)NO)no1)Nc1nc(-c2ccccc2)cs1

Tested on: not listed separately
Experiment: Antiproliferative activity against human Panc 04.03 cells by MTT assay
Format: functional, cell-based
Details: not given

Compound	IC50 [µM]
O=C(CCCCc1cc(CO)no1)Nc1nc(-c2ccccc2)cs1	> 50
O=C(CCCCc1cc(C(=O)O)no1)Nc1nc(-c2ccccc2)cs1	> 50
NC(=O)c1cc(CCCCC(=O)Nc2nc(-c3ccccc3)cs2)on1	> 50
CC(C)(C)OC(=O)Nc1ccc(-c2cc(C(=O)NCC(=O)Nc3ccc(-c4cc(C(=O)NO)no4)cc3)no2)cc1	> 50
O=C(CCCCc1cc(C(=O)NO)no1)Nc1ccc(-c2ccccc2)cc1	> 50
O=C(CCCCc1cc(C(=O)NO)no1)Nc1nc(-c2ccccc2)cs1	4

Tested on: not listed separately
Experiment: Antiproliferative activity against human SU-8686 cells by MTT assay
Format: functional, cell-based
Details: SU.86.86

Compound	IC50 [µM]
O=C(CCCCc1cc(CO)no1)Nc1nc(-c2ccccc2)cs1	> 50
O=C(CCCCc1cc(C(=O)O)no1)Nc1nc(-c2ccccc2)cs1	> 50
NC(=O)c1cc(CCCCC(=O)Nc2nc(-c3ccccc3)cs2)on1	> 50
CC(C)(C)OC(=O)Nc1ccc(-c2cc(C(=O)NCC(=O)Nc3ccc(-c4cc(C(=O)NO)no4)cc3)no2)cc1	> 50
O=C(CCCCc1cc(C(=O)NO)no1)Nc1ccc(-c2ccccc2)cc1	9
O=C(CCCCc1cc(C(=O)NO)no1)Nc1nc(-c2ccccc2)cs1	1

Biological target: Histone deacetylase 1 (Homo sapiens, UniProt Q13547)
Details: not given

Sequence of Histone deacetylase 1 (Q13547 whole entry): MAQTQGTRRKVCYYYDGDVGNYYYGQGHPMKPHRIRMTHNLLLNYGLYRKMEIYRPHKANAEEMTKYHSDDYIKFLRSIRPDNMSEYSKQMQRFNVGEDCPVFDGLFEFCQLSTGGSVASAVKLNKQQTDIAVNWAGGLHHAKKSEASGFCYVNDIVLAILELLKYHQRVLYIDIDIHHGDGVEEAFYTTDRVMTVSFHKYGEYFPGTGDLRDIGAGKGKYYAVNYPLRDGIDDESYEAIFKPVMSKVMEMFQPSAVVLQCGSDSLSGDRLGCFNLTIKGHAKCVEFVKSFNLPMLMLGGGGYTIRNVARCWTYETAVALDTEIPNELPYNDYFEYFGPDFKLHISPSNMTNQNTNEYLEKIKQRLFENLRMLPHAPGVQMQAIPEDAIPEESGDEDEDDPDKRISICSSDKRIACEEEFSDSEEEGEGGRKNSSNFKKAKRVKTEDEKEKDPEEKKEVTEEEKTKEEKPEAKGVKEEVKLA

IC50 [µM]	Compound
> 30	O=C(CCCCc1cc(CO)no1)Nc1nc(-c2ccccc2)cs1
> 30	O=C(CCCCc1cc(C(=O)O)no1)Nc1nc(-c2ccccc2)cs1
> 30	NC(=O)c1cc(CCCCC(=O)Nc2nc(-c3ccccc3)cs2)on1
0.92	CC(C)(C)OC(=O)Nc1ccc(-c2cc(C(=O)NCC(=O)Nc3ccc(-c4cc(C(=O)NO)no4)cc3)no2)cc1
0.885	O=C(CCCCc1cc(C(=O)NO)no1)Nc1ccc(-c2ccccc2)cc1
0.303	O=C(CCCCc1cc(C(=O)NO)no1)Nc1nc(-c2ccccc2)cs1

Biological target: T1, Polyamine deacetylase HDAC10 (Homo sapiens, UniProt Q969S8)
T1 sequence (Q969S8 whole entry): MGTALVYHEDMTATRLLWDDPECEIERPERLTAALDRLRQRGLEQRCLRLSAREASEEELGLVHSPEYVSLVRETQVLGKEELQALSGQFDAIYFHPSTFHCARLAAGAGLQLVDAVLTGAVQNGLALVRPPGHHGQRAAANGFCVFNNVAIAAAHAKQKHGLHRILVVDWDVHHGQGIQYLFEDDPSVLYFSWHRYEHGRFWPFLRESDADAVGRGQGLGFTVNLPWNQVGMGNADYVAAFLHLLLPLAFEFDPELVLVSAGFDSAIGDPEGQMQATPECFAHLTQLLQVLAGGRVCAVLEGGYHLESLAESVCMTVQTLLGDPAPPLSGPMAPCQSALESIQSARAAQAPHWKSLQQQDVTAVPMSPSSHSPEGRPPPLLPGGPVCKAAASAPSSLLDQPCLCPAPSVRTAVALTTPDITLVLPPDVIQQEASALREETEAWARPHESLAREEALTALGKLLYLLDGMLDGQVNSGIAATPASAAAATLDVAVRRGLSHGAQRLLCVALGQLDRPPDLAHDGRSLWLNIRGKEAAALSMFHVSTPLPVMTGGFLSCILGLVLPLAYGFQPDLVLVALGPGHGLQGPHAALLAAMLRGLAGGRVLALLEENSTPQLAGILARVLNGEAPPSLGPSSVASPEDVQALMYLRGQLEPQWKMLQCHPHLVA
Details: not given

IC50 [µM]	Compound
> 30	O=C(CCCCc1cc(CO)no1)Nc1nc(-c2ccccc2)cs1
> 30	O=C(CCCCc1cc(C(=O)O)no1)Nc1nc(-c2ccccc2)cs1
> 30	NC(=O)c1cc(CCCCC(=O)Nc2nc(-c3ccccc3)cs2)on1
13.3	CC(C)(C)OC(=O)Nc1ccc(-c2cc(C(=O)NCC(=O)Nc3ccc(-c4cc(C(=O)NO)no4)cc3)no2)cc1
0.254	O=C(CCCCc1cc(C(=O)NO)no1)Nc1nc(-c2ccccc2)cs1

Biological target: T2, Protein deacetylase HDAC6 (Homo sapiens, UniProt Q9UBN7)
T2 sequence (Q9UBN7 whole entry): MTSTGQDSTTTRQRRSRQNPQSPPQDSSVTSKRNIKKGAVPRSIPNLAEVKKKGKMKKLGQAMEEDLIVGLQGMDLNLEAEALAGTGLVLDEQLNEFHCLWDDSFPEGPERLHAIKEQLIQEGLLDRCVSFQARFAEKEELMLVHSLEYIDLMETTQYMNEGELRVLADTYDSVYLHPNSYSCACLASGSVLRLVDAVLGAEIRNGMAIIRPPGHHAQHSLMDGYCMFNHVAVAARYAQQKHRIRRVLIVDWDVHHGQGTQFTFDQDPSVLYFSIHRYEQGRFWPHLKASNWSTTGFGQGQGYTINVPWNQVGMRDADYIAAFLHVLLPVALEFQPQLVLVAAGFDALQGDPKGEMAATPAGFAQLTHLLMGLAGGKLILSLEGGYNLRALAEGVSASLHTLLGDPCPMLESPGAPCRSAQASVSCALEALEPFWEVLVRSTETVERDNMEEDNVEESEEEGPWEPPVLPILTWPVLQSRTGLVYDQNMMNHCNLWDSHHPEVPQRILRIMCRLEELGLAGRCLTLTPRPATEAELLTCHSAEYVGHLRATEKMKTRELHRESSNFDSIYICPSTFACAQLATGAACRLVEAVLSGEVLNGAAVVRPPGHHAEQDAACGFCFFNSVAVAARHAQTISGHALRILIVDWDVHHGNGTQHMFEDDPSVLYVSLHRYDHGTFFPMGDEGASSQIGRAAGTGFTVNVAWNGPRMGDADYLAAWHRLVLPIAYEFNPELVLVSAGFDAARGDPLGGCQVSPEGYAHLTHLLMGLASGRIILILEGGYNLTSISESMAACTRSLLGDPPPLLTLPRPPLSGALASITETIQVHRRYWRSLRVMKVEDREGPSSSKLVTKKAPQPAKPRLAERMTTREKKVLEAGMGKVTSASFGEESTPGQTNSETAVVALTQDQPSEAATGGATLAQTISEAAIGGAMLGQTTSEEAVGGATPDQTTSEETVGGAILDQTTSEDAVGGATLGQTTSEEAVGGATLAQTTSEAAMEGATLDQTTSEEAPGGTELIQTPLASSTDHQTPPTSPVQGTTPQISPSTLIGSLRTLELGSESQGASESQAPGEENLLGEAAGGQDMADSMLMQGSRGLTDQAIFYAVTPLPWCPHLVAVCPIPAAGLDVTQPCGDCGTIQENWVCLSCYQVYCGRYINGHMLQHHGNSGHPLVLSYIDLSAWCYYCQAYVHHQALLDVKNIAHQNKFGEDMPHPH
Details: not given

IC50 [µM]	Compound
> 30	O=C(CCCCc1cc(CO)no1)Nc1nc(-c2ccccc2)cs1
> 30	O=C(CCCCc1cc(C(=O)O)no1)Nc1nc(-c2ccccc2)cs1
> 30	NC(=O)c1cc(CCCCC(=O)Nc2nc(-c3ccccc3)cs2)on1
1.71	CC(C)(C)OC(=O)Nc1ccc(-c2cc(C(=O)NCC(=O)Nc3ccc(-c4cc(C(=O)NO)no4)cc3)no2)cc1
0.885	O=C(CCCCc1cc(C(=O)NO)no1)Nc1ccc(-c2ccccc2)cc1
0.068	O=C(CCCCc1cc(C(=O)NO)no1)Nc1nc(-c2ccccc2)cs1

Tested on: BXPC-3
Experiment: Antiproliferative activity against human BxPC3 cells by MTT assay
Format: functional, cell-based
Details: not given

IC50 [µM]	Compound
> 50	O=C(CCCCc1cc(CO)no1)Nc1nc(-c2ccccc2)cs1
> 50	O=C(CCCCc1cc(C(=O)O)no1)Nc1nc(-c2ccccc2)cs1
> 50	NC(=O)c1cc(CCCCC(=O)Nc2nc(-c3ccccc3)cs2)on1
> 50	CC(C)(C)OC(=O)Nc1ccc(-c2cc(C(=O)NCC(=O)Nc3ccc(-c4cc(C(=O)NO)no4)cc3)no2)cc1
9	O=C(CCCCc1cc(C(=O)NO)no1)Nc1ccc(-c2ccccc2)cc1
3	O=C(CCCCc1cc(C(=O)NO)no1)Nc1nc(-c2ccccc2)cs1

Tested on: HuP-T3
Experiment: Antiproliferative activity against human HUPT3 cells by MTT assay
Format: functional, cell-based
Details: not given

Compound	IC50 [µM]
O=C(CCCCc1cc(CO)no1)Nc1nc(-c2ccccc2)cs1	> 50
O=C(CCCCc1cc(C(=O)O)no1)Nc1nc(-c2ccccc2)cs1	> 50
NC(=O)c1cc(CCCCC(=O)Nc2nc(-c3ccccc3)cs2)on1	> 50
CC(C)(C)OC(=O)Nc1ccc(-c2cc(C(=O)NCC(=O)Nc3ccc(-c4cc(C(=O)NO)no4)cc3)no2)cc1	> 50
O=C(CCCCc1cc(C(=O)NO)no1)Nc1ccc(-c2ccccc2)cc1	7
O=C(CCCCc1cc(C(=O)NO)no1)Nc1nc(-c2ccccc2)cs1	1

Biological target: Histone deacetylase 2 (Homo sapiens, UniProt Q92769)
Experiment: Inhibition of human recombinant HDAC2
Details: not given

Sequence of Histone deacetylase 2 (Q92769 whole entry): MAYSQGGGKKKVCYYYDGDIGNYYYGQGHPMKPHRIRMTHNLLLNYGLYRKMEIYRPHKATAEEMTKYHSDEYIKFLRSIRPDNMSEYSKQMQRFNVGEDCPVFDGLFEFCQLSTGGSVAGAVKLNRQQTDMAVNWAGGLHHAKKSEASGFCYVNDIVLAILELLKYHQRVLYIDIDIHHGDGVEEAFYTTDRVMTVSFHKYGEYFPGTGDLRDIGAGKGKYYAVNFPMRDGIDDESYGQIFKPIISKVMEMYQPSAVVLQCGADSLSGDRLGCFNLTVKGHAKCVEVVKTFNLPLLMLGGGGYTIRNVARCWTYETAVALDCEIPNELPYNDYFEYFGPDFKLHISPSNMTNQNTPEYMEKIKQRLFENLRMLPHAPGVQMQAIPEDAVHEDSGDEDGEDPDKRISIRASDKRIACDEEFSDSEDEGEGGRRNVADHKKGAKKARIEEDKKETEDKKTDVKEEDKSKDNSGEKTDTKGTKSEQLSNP

IC50 [µM]	Compound
> 30	O=C(CCCCc1cc(CO)no1)Nc1nc(-c2ccccc2)cs1
> 30	O=C(CCCCc1cc(C(=O)O)no1)Nc1nc(-c2ccccc2)cs1
> 30	NC(=O)c1cc(CCCCC(=O)Nc2nc(-c3ccccc3)cs2)on1
> 30	CC(C)(C)OC(=O)Nc1ccc(-c2cc(C(=O)NCC(=O)Nc3ccc(-c4cc(C(=O)NO)no4)cc3)no2)cc1
3.75	O=C(CCCCc1cc(C(=O)NO)no1)Nc1ccc(-c2ccccc2)cc1
0.43	O=C(CCCCc1cc(C(=O)NO)no1)Nc1nc(-c2ccccc2)cs1

Tested on: MIA PaCa-2
Experiment: Antiproliferative activity against human MIAPaCa2 cells by MTT assay
Format: functional, cell-based
Details: not given

IC50 [µM]	Compound
> 50	O=C(CCCCc1cc(CO)no1)Nc1nc(-c2ccccc2)cs1
> 50	O=C(CCCCc1cc(C(=O)O)no1)Nc1nc(-c2ccccc2)cs1
> 50	NC(=O)c1cc(CCCCC(=O)Nc2nc(-c3ccccc3)cs2)on1
> 50	CC(C)(C)OC(=O)Nc1ccc(-c2cc(C(=O)NCC(=O)Nc3ccc(-c4cc(C(=O)NO)no4)cc3)no2)cc1
30	O=C(CCCCc1cc(C(=O)NO)no1)Nc1ccc(-c2ccccc2)cc1
4	O=C(CCCCc1cc(C(=O)NO)no1)Nc1nc(-c2ccccc2)cs1
